In publication PMC6008491, “Discovery of a novel allosteric inhibitor scaffold for polyadenosine-diphosphate-ribose polymerase 14 (PARP14) macrodomain 2” (Bioorganic & Medicinal Chemistry, 2018):
Counter-ions that a name gives are not always drawn.

molecular target: T1, PARP14 MD2 (Homo sapiens, UniProt Q460N5); assay: AlphaScreen competitive binding assay, displacement of ADP-ribose peptide from PARP14 MD2; set-up: PARP14 MD2 (second MD of PARP14); settings: not given
T1 sequence (Q460N5 1003-1190 limits assumed): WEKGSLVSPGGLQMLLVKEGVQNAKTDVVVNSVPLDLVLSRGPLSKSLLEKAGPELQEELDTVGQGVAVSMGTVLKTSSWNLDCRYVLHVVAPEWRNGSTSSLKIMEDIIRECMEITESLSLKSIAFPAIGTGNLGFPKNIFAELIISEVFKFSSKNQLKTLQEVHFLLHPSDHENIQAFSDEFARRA
From the text: Compounds were profiled for binding activity with PARP14 MD2 through a competitive (AlphaScreen™) binding assay measuring the displacement of ADP-ribose peptide from PARP14 MD2.[11a]

How did the “inhibition of PARP14 MD2 (in words)” value turn out when `CC(Nc1ccccc1-c1cccc2c1[nH]c1ccccc12)C(F)(F)F` (racemic) [compound 51, (±)-2-(9H-Carbazol-1-yl)-N-(1,1,1-trifluoropropan-2-yl)aniline] was run?
The value was “complete loss of activity”.

Which “inhibition of PARP14 MD2 (in words)” value does the source give for `CC(=O)Nc1ccccc1-c1ccccc1Nc1ccccc1` [compound 31, N-[2'-(Phenylamino)-(1,1'-biphenyl)-2-yl]acetamide] here?
Its value is “completely inactive”.

`CC(=O)Nc1ccccc1-c1cccc2c(=O)c3ccccc3[nH]c12` [compound 33, N-[2-(9-Oxo-9,10-dihydroacridin-4-yl)phenyl]acetamid] was tested. Which “inhibition of PARP14 MD2 (in words)” value did it give?
The value was “inactive”.

`COc1ccc2[nH]c3c(-c4ccccc4NC(C)=O)cccc3c2c1` [compound 39, N-[2-(6-Methoxy-9H-carbazol-1-yl)phenyl]acetamide] was tested. Which “inhibition of PARP14 MD2 (in words)” value did it give?
Its value is “inactive”.

`CC(=O)Nc1ccccc1-c1cccc2c3c([nH]c12)CCNC3` [compound 47, N-[2-(2,3,4,5-Tetrahydro-1H-pyrido[4,3-b]indol-6-yl)phenyl]acetamide hydrochloride] was tested. Which “inhibition of PARP14 MD2 (in words)” value did it give?
Its value is “inactive”.

same assay, conditions: Table 1; AlphaScreen, PARP14 MD2; read-out: IC50

Which IC50 does the source give for `CC(=O)Nc1cnccc1-c1cccc2c1[nH]c1ccccc12` [compound 17] here?
The IC50 was > 50 µM.

For `CC(C)(C)NC(=O)Nc1ccccc1-c1cccc2c1[nH]c1ccccc12` [compound 49, 1-[2-(9H-Carbazol-1-yl)phenyl]-3-(tert-butyl)urea], which IC50 is on record?
The IC50 was 7.2 ± 1.4 µM.

`CC(=S)Nc1ccccc1-c1cccc2c1[nH]c1ccccc12` [compound 52, N-[2-(9H-Carbazol-1-yl)phenyl]thioacetamide] was tested. Which IC50 did it give?
Its IC50 is 10.5 ± 0.4 µM.

Which IC50 does the source give for `CCNc1ccccc1-c1cccc2c1[nH]c1ccccc12` [compound 53, 2-(9H-Carbazol-1-yl)-N-ethylaniline] here?
Its IC50 is > 50 µM.

With `CCN(C(C)=O)c1ccccc1-c1cccc2c1[nH]c1ccccc12` [compound 54, N-[2-(9H-Carbazol-1-yl)phenyl]-N-ethylacetamide] as the compound, how does the IC50 read?
Its IC50 is > 50 µM.

With `Cc1ccc(-c2cccc3c2[nH]c2ccccc23)c(NS(C)(=O)=O)c1` [compound 55, N-(2-(9H-Carbazol-1-yl)-5-methylphenyl)methanesulfonamide] as the compound, how does the IC50 read?
Its IC50 is 1.1 ± 0.1 µM.

`CS(=O)(=O)Nc1ccc(C(F)(F)F)cc1-c1cccc2c1[nH]c1ccccc12` [compound 58, N-(2-(9H-Carbazol-1-yl)-4-(trifluoromethyl)phenyl)methanesulfonamide] was tested. Which IC50 did it give?
Its IC50 is > 50 µM.

Which IC50 does the source give for `Cc1ccc(-c2cccc3c2[nH]c2ccccc23)c(N)c1` [compound 59, 2-(9H-Carbazol-1-yl)-5-methylaniline] here?
Its IC50 is > 50 µM.

For `Nc1ccc(C(F)(F)F)cc1-c1cccc2c1[nH]c1ccccc12` [compound 60, 2-(9H-Carbazol-1-yl)-4-(trifluoromethyl)aniline], which IC50 is on record?
The IC50 was > 50 µM.

How did the IC50 turn out when `Cc1cccc(N)c1-c1cccc2c1[nH]c1ccccc12` [compound 61, 2-(9H-Carbazol-1-yl)-3-methylaniline] was run?
The IC50 was > 50 µM.

With `CCS(=O)(=O)Nc1ccccc1-c1cccc2c1[nH]c1ccccc12` [compound 62, N-(2-(9H-carbazol-1-yl)phenyl)ethanesulfonamide] as the compound, how does the IC50 read?
Its IC50 is 1.2 ± 0.03 µM.

Which IC50 does the source give for `CCCS(=O)(=O)Nc1ccccc1-c1cccc2c1[nH]c1ccccc12` [compound 63, N-(2-(9H-Carbazol-1-yl)phenyl)propane-1-sulfonamide] here?
The IC50 was 2.9 ± 0.1 µM.

With `CCCCS(=O)(=O)Nc1ccccc1-c1cccc2c1[nH]c1ccccc12` [compound 64, N-(2-(9H-Carbazol-1-yl)phenyl)butane-1-sulfonamide] as the compound, how does the IC50 read?
Its IC50 is 3.3 ± 0.1 µM.

Which IC50 does the source give for `CN(C)CC(=O)Nc1ccccc1-c1cccc2c1[nH]c1ccccc12` [compound 65, N-(2-(9H-carbazol-1-yl)phenyl)-2-(dimethylamino)acetamide] here?
Its IC50 is 5.5 ± 0.6 µM.

For `CCC(=O)Nc1ccccc1-c1cccc2c1[nH]c1ccccc12` [compound 66, N-(2-(9H-carbazol-1-yl)phenyl)propionamide], which IC50 is on record?
The IC50 was 1 ± 0.03 µM.

How did the IC50 turn out when `CCCC(=O)Nc1ccccc1-c1cccc2c1[nH]c1ccccc12` [compound 67, N-(2-(9H-carbazol-1-yl)phenyl)butyramide] was run?
Its IC50 is 0.9 ± 0.04 µM.

How did the IC50 turn out when `CCCCC(=O)Nc1ccccc1-c1cccc2c1[nH]c1ccccc12` [compound 68, N-(2-(9H-carbazol-1-yl)phenyl)pentanamide] was run?
Its IC50 is > 50 µM.

With `COCCS(=O)(=O)Nc1ccccc1-c1cccc2c1[nH]c1ccccc12` [compound 69, N-(2-(9H-Carbazol-1-yl)phenyl)-2-methoxyethane-1-sulfonamide] as the compound, how does the IC50 read?
Its IC50 is 8.6 ± 0.4 µM.

How did the IC50 turn out when `Cc1oncc1S(=O)(=O)Nc1ccccc1-c1cccc2c1[nH]c1ccccc12` [compound 70, N-(2-(9H-Carbazol-1-yl)phenyl)-5-methylisoxazole-4-sulfonamide] was run?
The IC50 was > 50 µM.

How did the IC50 turn out when `CN(C)S(=O)(=O)Nc1ccccc1-c1cccc2c1[nH]c1ccccc12` [compound 71, N1-(2-(9H-Carbazol-1-yl)phenyl)-N2,N2-dimethylsulfamide] was run?
Its IC50 is 2.5 ± 0.1 µM.

With `O=S(=O)(Nc1ccccc1-c1cccc2c1[nH]c1ccccc12)c1ccccc1` [compound 72, N-(2-(9H-Carbazol-1-yl)phenyl)benzenesulfonamide] as the compound, how does the IC50 read?
Its IC50 is > 50 µM.

`O=C(Nc1ccccc1-c1cccc2c1[nH]c1ccccc12)C(F)(F)F` [compound 73, N-(2-(9H-carbazol-1-yl)phenyl)-2,2,2-trifluoroacetamide] was tested. Which IC50 did it give?
Its IC50 is 1.1 ± 0.07 µM.

With `O=C(Nc1ccccc1-c1cccc2c1[nH]c1ccccc12)C1CC1` [compound 74, N-(2-(9H-carbazol-1-yl)phenyl)cyclopropanecarboxamide] as the compound, how does the IC50 read?
The IC50 was 1.2 ± 0.03 µM.

How did the IC50 turn out when `O=C(Nc1ccccc1-c1cccc2c1[nH]c1ccccc12)C1CCCCC1` [compound 75, N-(2-(9H-carbazol-1-yl)phenyl)cyclohexanecarboxamide] was run?
The IC50 was > 50 µM.

For `O=C(Nc1ccccc1-c1cccc2c1[nH]c1ccccc12)c1ccco1` [compound 76, N-(2-(9H-carbazol-1-yl)phenyl)furan-2-carboxamide], which IC50 is on record?
The IC50 was > 50 µM.

How did the IC50 turn out when `O=C(Nc1ccccc1-c1cccc2c1[nH]c1ccccc12)c1ccccc1` [compound 77, N-(2-(9H-carbazol-1-yl)phenyl)benzamide] was run?
Its IC50 is 1.9 ± 0.07 µM.

`O=C(Cc1ccccc1)Nc1ccccc1-c1cccc2c1[nH]c1ccccc12` [compound 78, N-(2-(9H-Carbazol-1-yl)phenyl)-2-phenylacetamide] was tested. Which IC50 did it give?
The IC50 was 7.6 ± 0.3 µM.

With `O=S(=O)(Cc1ccccc1)Nc1ccccc1-c1cccc2c1[nH]c1ccccc12` [compound 79, N-(2-(9H-Carbazol-1-yl)phenyl)-1-phenylmethanesulfonamide] as the compound, how does the IC50 read?
Its IC50 is 3.6 ± 0.3 µM.

For `COc1ccccc1C(=O)Nc1ccccc1-c1cccc2c1[nH]c1ccccc12` [compound 80, N-(2-(9H-Carbazol-1-yl)phenyl)-2-methoxybenzamide], which IC50 is on record?
Its IC50 is > 50 µM.

How did the IC50 turn out when `COc1cccc(C(=O)Nc2ccccc2-c2cccc3c2[nH]c2ccccc23)c1` [compound 81, N-(2-(9H-Carbazol-1-yl)phenyl)-3-methoxybenzamide] was run?
The IC50 was 12.7 ± 1.5 µM.

`COc1ccc(C(=O)Nc2ccccc2-c2cccc3c2[nH]c2ccccc23)cc1` [compound 82, N-(2-(9H-Carbazol-1-yl)phenyl)-4-methoxybenzamide] was tested. Which IC50 did it give?
The IC50 was 9 ± 1.4 µM.

same assay, conditions: Table 2; AlphaScreen, PARP14 MD2; read-out: IC50

For `N#Cc1cc(CC(=O)Nc2ccccc2-c2cccc3c2[nH]c2ccccc23)ccn1` [compound 86, N-(2-(9H-Carbazol-1-yl)phenyl)-2-(2-cyanopyridin-4-yl)acetamide], which IC50 is on record?
Its IC50 is 2.4 ± 0.2 µM.

`N#Cc1ccc(CC(=O)Nc2ccccc2-c2cccc3c2[nH]c2ccccc23)cn1` [compound 87, N-(2-(9H-Carbazol-1-yl)phenyl)-2-(6-cyanopyridin-3-yl)acetamide] was tested. Which IC50 did it give?
Its IC50 is 3.5 ± 0.2 µM.

same assay, conditions: text and figures; read-out: PARP14 MD2 IC50

For `CC(=O)Nc1ccncc1-c1cccc2c1[nH]c1ccccc12` [compound 15], which IC50 is on record?
The IC50 was > 50 µM.

With `CC(=O)Nc1cccnc1-c1cccc2c1[nH]c1ccccc12` [compound 16, N-[2-(9H-Carbazol-1-yl)pyridin-3-yl]acetamide] as the compound, how does the IC50 read?
Its IC50 is > 50 µM.

`CC(=O)Nc1ccccc1-c1nccc2c1[nH]c1ccccc12` [compound 18] was tested. Which IC50 did it give?
The IC50 was 30 µM.

`CC(=O)Nc1ccccc1-c1cn2c3ccccc3c3ccnc(c1=O)c32` [compound 19] was tested. Which IC50 did it give?
Its IC50 is > 50 µM.

Which IC50 does the source give for `CC(=O)Nc1ccccc1-c1cn2c3ccccc3c3cccc(c1=O)c32` [compound 20, N-[2-(4-Oxo-4H-pyrido[3,2,1-jk]carbazol-5-yl)phenyl]acetamide] here?
The IC50 was > 50 µM.

With `CC(=O)Nc1ccccc1-c1cccc2c3ccccc3n(C)c12` [compound 24, N-[2-(9-Methyl-9H-carbazol-1-yl)phenyl]acetamide] as the compound, how does the IC50 read?
The IC50 was > 50 µM.

Which IC50 does the source give for `CC(=O)Nc1ccccc1-c1cccc2c3ccccc3n(Cc3ccccc3)c12` [compound 25, N-[2-(9-Benzyl-9H-carbazol-1-yl)phenyl]acetamide] here?
The IC50 was > 50 µM.

Which IC50 does the source give for `CC(=O)Nc1ccccc1-c1cccc2c1oc1ccccc12` [compound 26, N-[2-(Dibenzofuran-4-yl)phenyl]acetamide] here?
The IC50 was > 50 µM.

For `CC(=O)Nc1ccccc1-c1cccc2c1sc1ccccc12` [compound 27, N-[2-(Dibenzothiophen-4-yl)phenyl]acetamide], which IC50 is on record?
The IC50 was 2.5 µM.

For `CC(=O)Nc1ccccc1-c1cccc2c1C(=O)c1ccccc1-2` [compound 28, N-[2-(9-Oxo-9H-fluoren-1-yl)phenyl]acetamide], which IC50 is on record?
Its IC50 is > 50 µM.

With `CC(=O)Nc1ccccc1-c1cccc2c1C(O)c1ccccc1-2` (stereo not shown) [compound 29, N-[2-(9-Hydroxy-9H-fluoren-1-yl)phenyl]acetamide] as the compound, how does the IC50 read?
The IC50 was > 50 µM.

For `CC(=O)Nc1ccccc1-c1cccc2c1[nH]c1c(Cl)c(Cl)ccc12` [compound 37, N-[2-(7,8-Dichloro-9H-carbazol-1-yl)phenyl]acetamide], which IC50 is on record?
Its IC50 is 1.4 µM.

`CC(=O)Nc1ccccc1-c1cccc2c1[nH]c1ccc(Cl)cc12` [compound 38, N-[2-(6-Chloro-9H-carbazol-1-yl)phenyl]acetamide] was tested. Which IC50 did it give?
Its IC50 is 3 µM.

Which IC50 does the source give for `CC(=O)Nc1ccccc1-c1cccc2c3c([nH]c12)CCCC3` [compound 44, N-[2-(5,6,7,8-Tetrahydro-9H-carbazol-1-yl)phenyl]acetamide] here?
Its IC50 is 1.1 µM.
